Experimental data taken from patent US9587266B2, “Mutant luciferases” (University of Massachusetts, priority 2011, dated 2017).
Several values for one entry are separate records, joined by “and”; a condition that tells them apart may be missing. Equal values may be shown once. Read-outs that look alike come from different tables or passages of the source.

Experiments:
[1] = biological target: T1, L286M mutant luciferase (Photinus pyralis, UniProt P08659, L286M); experiment: Titration assay with purified protein; assay type: biochemical; conditions: for Km: 3 minutes post-substrate addition, read-out: Apparent Km
T1 construct: The full firefly (Photinus pyralis) luciferase gene was PCR amplified from pGL3 (Promega); GST (N, cleaved yes); made in house; host or cells: E. coli JM109
T1 sequence (P08659 whole entry L286M): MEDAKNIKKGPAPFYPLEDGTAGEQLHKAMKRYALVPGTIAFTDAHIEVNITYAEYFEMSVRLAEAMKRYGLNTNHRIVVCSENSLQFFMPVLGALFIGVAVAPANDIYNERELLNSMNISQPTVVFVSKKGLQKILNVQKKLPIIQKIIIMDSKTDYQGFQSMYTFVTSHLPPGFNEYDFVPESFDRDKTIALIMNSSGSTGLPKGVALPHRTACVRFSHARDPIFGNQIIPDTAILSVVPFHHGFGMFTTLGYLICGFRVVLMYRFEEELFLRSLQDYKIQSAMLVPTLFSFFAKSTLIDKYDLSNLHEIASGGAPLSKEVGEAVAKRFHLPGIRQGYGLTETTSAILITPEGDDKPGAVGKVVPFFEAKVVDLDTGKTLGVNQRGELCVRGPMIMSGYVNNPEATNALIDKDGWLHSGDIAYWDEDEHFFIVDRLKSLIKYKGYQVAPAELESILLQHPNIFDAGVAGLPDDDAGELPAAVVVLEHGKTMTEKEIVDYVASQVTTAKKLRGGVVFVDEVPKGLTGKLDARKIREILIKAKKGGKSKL
Description: (§1) The PCR product was cloned into the BamH1 and NotI sites of pGEX6P-1 for bacterial expression. Mutant proteins were created using the Quickchange site-directed mutagenesis kit (Stratagene). Saturating mutagenesis was performed using the used the degenerate codon NNK at sites predicted to impact or alter substrate biding including F247, T251, L286, S347, R337, R218, Q338, Y340, A313, and I351 using the degenerate codon NNK.
(§2) Luminescence assays in 96-well plates were initiated by adding 30 μL 2× substrate in 20 mM Tris pH 7.6, 0.1 mM EDTA, 8 mM MgSO4, 4 mM ATP, and 1 mM TCEP to 30 μL of 20 nM purified luciferase in 20 mM Tris pH 7.6, 0.1 mM EDTA, 1 mM TCEP and 0.4 mg/mL BSA.

[2] = biological target: T2, T251S mutant luciferase (Photinus pyralis, UniProt P08659, T251S); experiment: Titration assay with purified protein; assay type: biochemical; conditions: for Km: 3 minutes post-substrate addition, read-out: Apparent Km
T2 construct: The full firefly (Photinus pyralis) luciferase gene was PCR amplified from pGL3 (Promega); GST (N, cleaved yes); made in house; host or cells: E. coli JM109
T2 sequence (P08659 whole entry T251S): as the sequence (P08659 whole entry L286M) above, with T251S, M286L counted along it
Description: as §1, §2

[3] = biological target: T3, R218K mutant luciferase (Photinus pyralis, UniProt P08659, R218K); assay type: biochemical; conditions: for Apparent Vmax / Km: R218K luciferase, purified protein; for Km: 3 minutes post-substrate addition, read-out: Apparent Km
T3 construct: The full firefly (Photinus pyralis) luciferase gene was PCR amplified from pGL3 (Promega); GST (N, cleaved yes); made in house; host or cells: E. coli JM109
T3 sequence (P08659 whole entry R218K): as the sequence (P08659 whole entry L286M) above, with R218K, M286L counted along it
Description: as §1, §2

[4] = biological target: T4, S347A mutant luciferase (Photinus pyralis, UniProt P08659, S347A); assay type: biochemical; conditions: purified protein; for Km: 3 minutes post-substrate addition, read-out: Apparent Km
T4 construct: The full firefly (Photinus pyralis) luciferase gene was PCR amplified from pGL3 (Promega); GST (N, cleaved yes); made in house; host or cells: E. coli JM109
T4 sequence (P08659 whole entry S347A): as the sequence (P08659 whole entry L286M) above, with M286L, S347A counted along it
Description: as §1, §2

[5] = biological target: T5, WT luciferase (Photinus pyralis, UniProt P08659); experiment: Titration assay with purified protein; assay type: biochemical; conditions: for Km: 3 minutes post-substrate addition, read-out: Apparent Km
T5 construct: The full firefly (Photinus pyralis) luciferase gene was PCR amplified from pGL3 (Promega); GST (N, cleaved yes); made in house; host or cells: E. coli JM109
T5 sequence (P08659 whole entry): as the sequence (P08659 whole entry L286M) above, with M286L counted along it
Description: as §1, with “NNK. The point mutants S347A, L286A, A348G, E311A, I351A, A313G, R337A, H245A and L342A were made independently.” for “NNK.”
as §2, with “BSA. Titration assays were performed 3 minutes post-substrate addition in a Turner Veritas luminometer with final substrate concentrations ranging from 0.122-250 μM or 0.244-500 μM.” for “BSA.”

[6] = biological target: T6, R218K + L342A luciferase (Photinus pyralis, UniProt P08659, L342A/R218K); assay type: biochemical
T6 construct: The full firefly (Photinus pyralis) luciferase gene was PCR amplified from pGL3 (Promega); GST (N, cleaved yes); made in house; host or cells: E. coli JM109
T6 sequence (P08659 whole entry R218K/L342A): as the sequence (P08659 whole entry L286M) above, with R218K, M286L, L342A counted along it
Description: (§3) Purified mutant luciferases were used in bioluminescence emission and burst kinetics scans. Each purified protein in 20 mM Tris pH 7.6, 0.1 mM EDTA, 1 mM TCEP and 0.4 mg/mL BSA was added to 2× substrate in 20 mM Tris pH 7.6, 0.1 mM EDTA, 8 mM MgSO4, 4 mM ATP, and 1 mM TCEP in a cuvette.
(§4) Luciferase was rapidly injected into a cuvette containing substrate, and the emission from 400-800 nm was recorded in a SPEX FluoroMax-3 fluorimeter with closed excitation slits.

[7] = biological target: T5, WT luciferase; assay type: biochemical; conditions: for Maximum Emission Wavelength of Selected Substrate: Table 3
Description: as §3, §4

[8] = biological target: T7, L286M + S347A luciferase (Photinus pyralis, UniProt P08659, L286M/S347A); experiment: Bioluminescence emission scan; assay type: biochemical
T7 construct: The full firefly (Photinus pyralis) luciferase gene was PCR amplified from pGL3 (Promega); GST (N, cleaved yes); made in house; host or cells: E. coli JM109
T7 sequence (P08659 whole entry L286M/S347A): as the sequence (P08659 whole entry L286M) above, with S347A counted along it
Description: (§5) Purified mutant luciferases were used in bioluminescence emission and burst kinetics scans.
as §4

[9] = biological target: T8, L342A luciferase (Photinus pyralis, UniProt P08659, L342A); experiment: Bioluminescence emission scan; assay type: biochemical
T8 construct: The full firefly (Photinus pyralis) luciferase gene was PCR amplified from pGL3 (Promega); GST (N, cleaved yes); made in house; host or cells: E. coli JM109
T8 sequence (P08659 whole entry L342A): as the sequence (P08659 whole entry L286M) above, with M286L, L342A counted along it
Description: as §5, §4

[10] = biological target: T9, R218K luciferase (Photinus pyralis, UniProt P08659, R218K); experiment: Bioluminescence emission scan; assay type: biochemical
T9 construct: The full firefly (Photinus pyralis) luciferase gene was PCR amplified from pGL3 (Promega); GST (N, cleaved yes); made in house; host or cells: E. coli JM109
T9 sequence (P08659 whole entry R218K): as the sequence (P08659 whole entry L286M) above, with R218K, M286L counted along it
Description: as §5, §4

[11] = tested on: Nc1ccc2nc(C3=N[C@@H](C(=O)O)CS3)sc2c1; experiment: purified protein, by the assay type; conditions: 3 minutes post-substrate addition, pH 7.6
[12] = biological target: T10, F247V luciferase (Photinus pyralis, UniProt P08659, F247V); experiment: Bioluminescence emission scan; assay type: biochemical
T10 construct: The full firefly (Photinus pyralis) luciferase gene was PCR amplified from pGL3 (Promega); GST (N, cleaved yes); made in house; host or cells: E. coli JM109
T10 sequence (P08659 whole entry F247V): as the sequence (P08659 whole entry L286M) above, with F247V, M286L counted along it
Description: as §5, §4

[13] = biological target: T11, L286M luciferase (Photinus pyralis, UniProt P08659, L286M); experiment: Bioluminescence emission scan; assay type: biochemical
T11 construct: The full firefly (Photinus pyralis) luciferase gene was PCR amplified from pGL3 (Promega); GST (N, cleaved yes); made in house; host or cells: E. coli JM109
T11 sequence (P08659 whole entry L286M): as the sequence (P08659 whole entry L286M) above
Description: as §5, §4

Molecule | Maximum Emission Wavelength of Selected Substrate [6] [nm] | Maximum Emission Wavelength of Selected Substrate [7] [nm] | Maximum Emission Wavelength of Selected Substrate [8] [nm] | Maximum Emission Wavelength of Selected Substrate [9] [nm] | Maximum Emission Wavelength of Selected Substrate [10] [nm] | further results
CNc1ccc2nc(C3=NC(C(=O)O)CS3)sc2c1 (stereo not shown) [6′-MeNHLH2, Monomethylaminoluciferin] | 612 | 608 | 599 | 611 | 610 | Apparent Vmax [1]: 7 ± 0.05 ×10^−5 cps; Km [1]: 0.08 ± 0.005 µM; Apparent Vmax [2]: 8 ± 0.1 ×10^−5 cps; Km [2]: 0.27 ± 0.02 µM; Apparent Vmax [3]: 38 ± 0.5 ×10^−5 cps; Km [3]: 0.45 ± 0.04 µM; Apparent Vmax [4]: 16 ± 0.2 ×10^−5 cps; Km [4]: 0.47 ± 0.03 µM; Apparent Vmax [5]: 3 ± 0.02 ×10^−5 cps; Km [5]: 0.06 ± 0.004 µM
CC1=CC(C)(C)N(C)c2cc3sc(C4=NC(C(=O)O)CS4)nc3cc21 (stereo not shown) [CycLuc6, 2-(5,6,6,8-Tetramethyl-5,6-dihydro-thiazolo[4,5-g]quinolin-2-yl)-4,5-dihydro-thiazole-4-carboxylic acid] | 635 | 636 | 628 | 639 | 637 | 
T251S mutant luciferase (Photinus pyralis; T251S) |  |  |  |  |  | Km ([11]; other: T251S luciferase): 17.3 ± 0.3 µM
S347A mutant luciferase (Photinus pyralis; S347A) |  |  |  |  |  | Km ([11]; other: S347A luciferase): 31.0 ± 0.4 µM
CN1CCCc2cc3nc(C4=NC(C(=O)O)CS4)sc3cc21 (stereo not shown) [CycLuc8, 2-(5-Methyl-5,6,7,8-tetrahydro-thiazolo[4,5-g]quinolin-2-yl)-4,5-dihydro-thiazole-4-carboxylic acid] | 628 | 610 | 605 | 614 | 632 | 
O=C(O)C1CSC(c2nc3cc4c(cc3s2)NCCO4)=N1 (stereo not shown) [CycLuc3, 2-(7,8-Dihydro-6H-5-oxa-1-thia-3,8-diaza-cyclopenta[b]naphthalen-2-yl)-4,5-dihydro-thiazole-4-carboxylic acid] | 606 | 599 | 590 | 599 | 605 | Wavelength at Max. Emission ([7]; Table 2): 594 nm; Wavelength at Max. Emission [12]: 599 nm; Wavelength at Max. Emission [13]: 592 nm
L286M mutant luciferase (Photinus pyralis; L286M) |  |  |  |  |  | Km ([11]; other: L286M luciferase): 4.35 ± 0.2 µM
O=C(O)C1CSC(c2nc3cc4c(cc3s2)NCCC4)=N1 (stereo not shown) [CycLuc7, 2-(5,6,7,8-Tetrahydro-thiazolo[4,5-g]quinolin-2-yl)-4,5-dihydro-thiazole-4-carboxylic acid] | 616 | 607 | 604 | 611 | 620 | 
CCCO [Propanol] | 609 | 608 | 593 | 607 | 609 | 
R218K mutant luciferase (Photinus pyralis; R218K) |  |  |  |  |  | Km ([11]; other: R218K luciferase): 15.2 ± 1.1 µM
CN(C)c1ccc2nc(C3=NC(C(=O)O)CS3)sc2c1 (stereo not shown) [6′-Me2NLH2] | 628 | 619 | 608 | 619 | 624 | Apparent Vmax [1]: 1.3 ± 0.01 ×10^−5 cps; Km [1]: 0.08 ± 0.005 µM; Apparent Vmax [2]: 1.6 ± 0.02 ×10^−5 cps; Km [2]: 0.3 ± 0.02 µM; Apparent Vmax [3]: 5 ± 0.1 ×10^−5 cps; Km [3]: 0.35 ± 0.04 µM; Apparent Vmax [4]: 2.1 ± 0.02 ×10^−5 cps; Km [4]: 0.24 ± 0.014 µM; Apparent Vmax [5]: 0.5 ± 0.003 ×10^−5 cps; Km [5]: 0.025 ± 0.003 µM
CC1=CC(C)(C)Nc2cc3sc(C4=NC(C(=O)O)CS4)nc3cc21 (stereo not shown) [CycLuc5, 2-(6,6,8-Trimethyl-5,6-dihydro-thiazolo[4,5-g]quinolin-2-yl)-4,5-dihydro-thiazole-4-carboxylic acid] | 633 | 637 | 631 | 631 | 635 | 
CN1CCc2cc3nc(C4=N[C@@H](C(=O)O)CS4)sc3cc21 [CycLuc2] | 617 | 609 | 608 | 611 | 621 | Apparent Vmax [1]: 2.3 ± 0.02 ×10^−5 cps; Km [1]: 0.1 ± 0.01 µM; Apparent Vmax [2]: 4.8 ± 0.1 ×10^−5 cps; Km [2]: 0.13 ± 0.02 µM; Apparent Vmax [3]: 26 ± 0.3 ×10^−5 cps; Km [3]: 0.3 µM and 0.27 µM; improvement in the maximal sustained emission ([3]; R218K mutant relative to wild-type luciferase): 20 fold; Apparent Vmax [4]: 7.6 ± 0.05 ×10^−5 cps; Km [4]: 0.11 ± 0.005 µM; Apparent Vmax [5]: 1.3 ± 0.02 ×10^−5 cps; Maximum Emission Wavelength of Selected Substrate ([10]; listed as Cyc2): 619 nm
CN1CCOc2cc3nc(C4=NC(C(=O)O)CS4)sc3cc21 (stereo not shown) [CycLuc4, 2-(8-Methyl-7,8-dihydro-6H-5-oxa-1-thia-3,8-diaza-cyclopenta[b]naphthalen-2-yl)-4,5-dihydro-thiazole-4-carboxylic acid] | 616 | 607 | 602 | 608 | 617 | 
